Source: BindingDB's records for doi:10.1111/j.1747-0285.2011.01270.x (National Institutes of Health, 2012)
pIC50: −log10 of the molar value.

The molecules below were run against T1, Gag-Pol polyprotein [1148-1435] (Human immunodeficiency virus 1, UniProt P04585) (assay: In Vitro Integrase Assay).
T1 construct: 1148-1435
Description: The compound were evaluated in biochemical IN (integrase) assay that measure inhibitory potency (IC50 values)against both the 3'-processing(3'P)and strand transfer(ST)reaction.
With `Cc1c2c(c(O)c(=O)n1C)C(=O)N(Cc1ccc(F)c(Cl)c1)C2=O` [Bicyclic hydroxy-1H-pyrrolopyridine-trione, 5a] the pIC50 was 5.17. In the case of `Cc1c2c(c(O)c(=O)n1-c1ccccc1)C(=O)N(Cc1ccc(F)c(Cl)c1)C2=O` [Bicyclic hydroxy-1H-pyrrolopyridine-trione, 5b], the pIC50 was 5.19. `CC(C)Cc1c2c(c(O)c(=O)n1C(C)C)C(=O)N(Cc1ccc(F)c(Cl)c1)C2=O` [Bicyclic hydroxy-1H-pyrrolopyridine-trione, 5c] showed a pIC50 of 4.67. `CC(=O)OCc1c2c(c(O)c(=O)n1C(C)C)C(=O)N(Cc1ccc(F)c(Cl)c1)C2=O` [Bicyclic hydroxy-1H-pyrrolopyridine-trione, 5d] showed a pIC50 of 4.81. For `COC(=O)CCc1c2c(c(O)c(=O)n1C(C)C)C(=O)N(Cc1ccc(F)c(Cl)c1)C2=O` [Bicyclic hydroxy-1H-pyrrolopyridine-trione, 5e], the pIC50 was 5.15. With `CC(=O)OCc1[nH]c(=O)c(O)c2c1C(=O)N(Cc1ccc(F)c(Cl)c1)C2=O` [Bicyclic hydroxy-1H-pyrrolopyridine-trione, 5f] the pIC50 was 4.91. Work on `O=C1c2c(CO)[nH]c(=O)c(O)c2C(=O)N1Cc1ccc(F)c(Cl)c1` [Bicyclic hydroxy-1H-pyrrolopyridine-trione, 5g] yielded a pIC50 of 5.19.
